Experimental data published in patent US10478501B2, “Method of treating disorders using a pharmaceutical composition of oligopeptides” (Merck Patent GmbH, priority 2011, dated 2019).

Legend:
[1] = system: FaDu (HNSCC) tumor xenografts; assay: Tumor growth delay of FaDu xenografts with radiation; assay type: in vivo, nude mice
Experimental: (§1) Methods: Three non-small cell lung carcinoma lines (NSCLCs) (H460, A549 and H1299) and three head and neck squamous cell carcinoma lines (HNSCCs) (FaDu, SCC-15 and SCC-25) cell lines were used for in vitro experiments. Of these, H460 and FaDu were used for in vivo testing when grown as xenografts in nude mice. The effects of cilengitide (1-50 μg/ml, 24 h) on in vitro cell viability was determined by MTS assay and on cellular radiosensitivity by clonogenic cell survival assay after exposing the cells to graded single doses of γ-radiation with or without cilengitide (given 1 h before and continued for 23 h after irradiation). In vivo effect of cilengitide on radioresponse of xenografts was assessed by tumor growth delay. When tumor xenografts reached 7 mm in diameter cilengitide treatment (30 or 60 mg/d/5 or 10 days) was initiated followed by a single dose of 15 Gy local radiation (using ^137Cs γ-ray source), when the tumors reached 8 mm.

H460 = assay: Cellular radiosensitivity by clonogenic cell survival assay, H460; assay type: cell-based, human; conditions: combined with γ-radiation, given 1 h before and continued 23 h after irradiation
Experimental: as §1

H1299 = assay: In vitro cell viability by MTS assay, H1299; assay type: cell-based, human; conditions: 5 μg/ml, 24 h
Experimental: as §1

[2] = system: MDA-MB468 human breast tumour cells; assay: Study 007: MDA-MB-468 primary tumor growth; assay type: in vivo, female BALB/c nu/nu mice; conditions: all three dosing groups (75, 150 or 300 mg/kg) daily s.c., composition according to Example 18; Vehicle Control higher than 350 mm^3
Experimental: MDA-MB468 human breast tumour cells were orthotopically inoculated into the third mammary fat pad of female BALB/c nu/nu mice. The mice were randomised into groups when the tumors reached a size of approximately 40 mm^3.
The mice in each group received treatment with either Vehicle Control (Placebo) or EMD 121974 (75, 150 or 300 mg/kg as a Composition according to Example 18) by daily subcutaneous injection. Body weight and tumour volume measurements were made for all mice three times per week.

[3] = system: 4T1 mouse breast tumour cells; assay: Study 003: 4T1 orthotopic model (lung and liver metastases); assay type: in vivo, female BALB/c mice
Experimental: 4T1 mouse breast tumour cells were orthotopically inoculated into the third mammary fat pad of female BALB/c mice. The mice were randomised into groups when the tumors reached a size of approximately 40 mm^3.
The mice in each group received treatment with either Vehicle Control (Placebo), EMD 121974 (75, 150 or 300 mg/kg as Composition according to Example 18) or Taxol® (8 mg/kg). The Vehicle Control and EMD 121974 were administered by subcutaneous injection, daily; Taxol® was administered by intravenous injection three times per week.
Body weight and tumour volume measurements were made for all mice three times per week. The lungs and liver were excised from all mice at termination. For lung metastasis assessment surface metastases of the lungs were counted and for liver metastasis assessment H&E-stained sections of liver were assessed for the presence and number of micro-metastases.

CC(C)[C@H]1C(=O)N[C@@H](CCCN=C(N)N)C(=O)NCC(=O)N[C@@H](CC(=O)O)C(=O)N[C@H](Cc2ccccc2)C(=O)N1C [Cilengitide, cyclo-(Arg-Gly-Asp-DPhe-NMeVal)]
enhancement factor of tumor radioresponse (tumor growth delay) ([1]; with single dose of 15 Gy local radiation): 2.0 | antitumor activity as a single agent (tumor growth delay) ([1]; without radiation): no antitumor activity | radiosensitivity enhancement factor (H460): 1.35 | in vitro viability (H1299): 27.8±4.2% | tumour volume on day 60 [2]: below 200 mm^3 | spontaneous liver metastasis formation ([3]; 75, 150 or 300 mg/kg daily s.c. as Composition according to Example 18, significant for all doses): inhibited spontaneous liver metastasis formation comparable to Taxol | spontaneous lung metastasis formation ([3]; daily s.c. as Composition according to Example 18, significant for 300 mg/kg/day): spontaneous lung metastasis formation comparable to Taxol
